# Assay results from patent US20210180013A1, “IMPROVED METHODS FOR INDUCING TISSUE REGENERATION AND SENOLYSIS IN MAMMALIAN CELLS” (AgeX Therapeutics, Inc., priority 2018, published 2021).
# Several values for one entry are separate records, joined by “and”; a condition that tells them apart may be missing. Equal entries are not always repeated.
# B1: A: LIN28A-11R (LD Biopharma HTF 0046) 4 ug/ml (protein, UniProt Q9H9Z2 2-209, looked up)
# Protein lin-28 homolog A: GSVSNQQFAGGCAKAAEEAPEEAPEDAARAADEPQLLHGAGICKWFNVRMGFGFLSMTARAGVALDPPVDVFVHQSKLHMEGFRSLKEGEAVEFTFKKSAKGLESIRVTGPGGVFCIGSERRPKGKSMQKRRSKGDRCYNCGGLDHHAKECKLPPQPKKCHFCQSISHMVASCPLKAQQGPSAQGKPTYFREEEEEIHSPTLLPEAQN
# modifications: C-terminal 11-arginine cell-penetrating tag
# notes: LIN28A-11R (LD Biopharma HTF 0046) 4 ug/ml
# How the values were obtained:
# 4D20.8 and MSCs = experiment: TUNEL apoptosis assay, embryonic vs adult mesenchymal cells; format: cell-based, human; details: 3.7 nM; 24 hours; 4D20.8 vs MSC; FIG. 7
# Experimental: (§1) Optimized conditions were identified for distinguishing the increased apoptosis anticipated by cells with a pre-fetal pattern of gene expression. Embryonic and adult-derived mesenchymal (4D20.8 and MSCs respectively) and vascular endothelial cells (30MV2-6 and HAEC respectively) were treated with diverse stimuli for apoptosis including: Camptothecin (CPT), H2O2, and Thapsigargin (TG) at two concentrations each as well as a vehicle control. The compounds were applied for 24 hours prior to analysis. After treatment apoptosis was monitored via TUNEL staining using the In Situ Cell Death Detection kit (Roche, cat #12156792910) following the manufacturer's instructions. […] This assay is therefore useful in determining the effectiveness of iTR factors in inducing senolysis in aged cells and in CSCs.
# 30MV2-6 and HAEC = experiment: TUNEL apoptosis assay, embryonic vs adult vascular endothelial cells; format: cell-based, human; details: 3.7 nM; 24 hours; 30MV2-6 vs HAEC; FIG. 7
# Experimental: as §1
# BJ-TERT fibroblast cells = experiment: Scratch assay of tissue regeneration and cell proliferation; format: cell-based; details: 2 weeks treatment; 800 um scratch; % filling 16 hours later
# Experimental: BJ-TERT fibroblast cells at passage 8 were seeded at 50,000 cells/well on 6 well plates in DMEM 10% FBS. The following day the cells were treated with various cocktails listed below for 2 weeks:
# Following treatment, at confluence an 800 um scratch was made and % filling evaluated 16 hours later. Filling of scratch of treated cells were compared to that of control.
# [1] = tested on: Xgene fibroblasts (human foreskin); experiment: Cell number of early and late passage fibroblasts (senolytic activity); format: cell-based; details: for cell number, Avg / cell number, single wells: 20,000 cells/well seeded; for cell number, Avg / cell number, single wells / cell number compared to controls, in words: 1 week; for Fold change of cell number: relative to control (growth medium alone)
# Experimental: Xgene fibroblasts (human foreskin, obtained from Xgene, Sausilito Calif.) were seeded at early (P9) and late (P33) passage at 20,000 cells/well (0.1% gelatin coated 24 well plate) in growth medium (DMEM+10% FBS). The following day they were refed medium with the additive listed below for 1 week and fed every other day and then counted.
# COX7A1 = experiment: qPCR of COX7A1 after valproic acid treatment; format: cell-based; details: 28 days, adult derived dermal fibroblasts
# Experimental: Adult derived dermal fibroblasts were cultured in DMEM 10% FBS in wells of 6 well plates and treated with valproic acid at 0.5 mM and 1 mM for 28 days. On day 28 the media was removed, the cells were washed with PBS, and then lysed using RLT with beta-mercaptoethanol (Qiagen Cat 79216). Total RNA was extracted using Qiagen RNeasy mini-kits (Qiagen Cat 74106) following manufacturers instructions. Then cDNA was prepared using ThermoFisher superscript III (Cat. 18080044). qPCR was run on an Applied Biosystems 7500 Real-Time PCR System employing SDSv2.3 software to evaluate the expression of COX7A1 (which is a definitive indicator of adult phenotype) relative to GAPDH of the treated line relative to the untreated line.
Molecule,"apoptosis (TUNEL), embryonic mesenchymal cells compared to adult counterparts (4D20.8 and MSCs)","apoptosis (TUNEL), embryonic endothelial cells compared to adult counterparts (30MV2-6 and HAEC)",Fold Increase Over Control (filling of scratch) (BJ-TERT fibroblast cells),"cell number, Avg ([1]; early passage P9)","cell number, single wells ([1]; early passage P9, listed as Cond. B)",Fold change of cell number ([1]; early passage P9),"cell number compared to controls, in words ([1]; late passage (P33))","cell number, Avg ([1]; late passage P33)","cell number, single wells ([1]; late passage P33, listed as Cond. B)",Fold change of cell number ([1]; late passage P33),COX7A1 expression (normalized to GAPDH) compared to control (untreated) (COX7A1; 0.5 mM),COX7A1 expression (normalized to GAPDH) compared to control (untreated) (COX7A1; 1 mM),"cell number compared to controls, in words ([1]; early passage (P9))","cell number, single wells ([1]; early passage P9, listed as Cond A)","cell number compared to controls, in words ([1]; late passage (P33), listed as condition A)","cell number, single wells ([1]; late passage P33, listed as Cond A)"
C/C=C(/C)C(=O)O[C@H]1C(C)=C2[C@H]([C@@H]1OC(=O)CCCCCCC)[C@@](C)(OC(C)=O)C[C@H](OC(=O)CCC)[C@@]1(O)[C@H]2OC(=O)[C@@]1(C)O [Thapsigargin],robust statistically-significant increase in apoptosis,robust statistically-significant increase in apoptosis,–,–,–,–,–,–,–,–,–,–,–,–,–,–
CCCC(CCC)C(=O)O [valproic acid],–,–,1.4,"226,000","228,000 and 224,000",1.2,differential effect on late passage cells,"67,000","62,000 and 72,000",1.0,negligible effect,0.001,–,–,–,–
B1,–,–,1.2,"254,000",–,1.3,differential effect on late passage cells,"48,000",–,0.8,–,–,heightened cell number,"220,000 and 288,000",reduced cell number,"46,000 and 50,000"
